Reference: patent publication US20230133958A1, “COMPOUNDS USEFUL IN MODULATING EGFR AND PI3K” (Mekanistic Therapeutics LLC, priority 2021, published 2023)

Columns and labels:
Type in all cases: cell-based
MALME-3M = experiment: NCI COMPARE panel (SRB growth inhibition), MALME-3M; conditions: Homo sapiens, Melanoma, 48 h
Procedure: (§1) The human tumor cell lines of the cancer screening panel are grown in RPMI 1640 medium containing 5% fetal bovine serum and 2 mM L-glutamine. For a typical screening experiment, cells are inoculated into 96 well microtiter plates in 100 µL at plating densities ranging from 5,000 to 40,000 cells/well depending on the doubling time of individual cell lines. After cell inoculation, the microtiter plates are incubated at 37° C., 5% CO2, 95% air and 100% relative humidity for 24 h prior to addition of experimental drugs.
(§2) After 24 h, two plates of each cell line are fixed in situ with TCA, to represent a measurement of the cell population for each cell line at the time of drug addition (Tz). Experimental drugs are solubilized in dimethyl sulfoxide at 400-fold the desired final maximum test concentration and stored frozen prior to use. […]
(§3) Following drug addition, the plates are incubated for an additional 48 h at 37° C., 5 % CO2, 95% air, and 100% relative humidity. […] Bound stain is subsequently solubilized with 10 mM trizma base, and the absorbance is read on an automated plate reader at a wavelength of 515 nm. […] Using the seven absorbance measurements [time zero, (Tz), control growth, (C), and test growth in the presence of drug at the five concentration levels (Ti)], the percentage growth is calculated at each of the drug concentrations levels. Percentage growth inhibition is calculated as: […]

UO-31 = experiment: NCI COMPARE panel (SRB growth inhibition), UO-31; conditions: Homo sapiens; Renal Cancer, UO-31, 48 h
Procedure: as §1, §2, §3

OVCAR-3 = experiment: NCI COMPARE panel (SRB growth inhibition), OVCAR-3; conditions: Homo sapiens; Ovarian Cancer, OVCAR-3, 48 h
Procedure: as §1, §2, §3

NCI-H226 = experiment: NCI COMPARE panel (SRB growth inhibition), NCI-H226; conditions: Homo sapiens; Non-Small Cell Lung Cancer, NCI-H226, 48 h
Procedure: as §1, §2, §3

K-562 = experiment: NCI COMPARE panel (SRB growth inhibition), K-562; conditions: Homo sapiens, K562; Leukemia, K-562, 48 h
Procedure: as §1, §2, §3

DU-145 = experiment: NCI COMPARE panel (SRB growth inhibition), DU-145; conditions: Homo sapiens; Prostate Cancer, DU-145, 48 h
Procedure: as §1, §2, §3

COLO 205 = experiment: NCI COMPARE panel (SRB growth inhibition), COLO 205; conditions: Homo sapiens; Colon Cancer, COLO 205, 48 h
Procedure: as §1, §2, §3

MDA-MB-231/ATCC = experiment: NCI COMPARE panel (SRB growth inhibition), MDA-MB-231/ATCC; conditions: Homo sapiens, Breast Cancer, 48 h
Procedure: as §1, §2, §3

SK-MEL-28 = experiment: NCI COMPARE panel (SRB growth inhibition), SK-MEL-28; conditions: Homo sapiens; Melanoma, SK-MEL-28, 48 h
Procedure: as §1, §2, §3

HCT-116 = experiment: NCI COMPARE panel (SRB growth inhibition), HCT-116; conditions: Homo sapiens; Colon Cancer, HCT-116, 48 h
Procedure: as §1, §2, §3

| Structure (SMILES) | GI50 (MALME-3M) | GI50 (UO-31) | GI50 (OVCAR-3) | GI50 (NCI-H226) | GI50 (K-562) | GI50 (DU-145) | GI50 (COLO 205) | GI50 (MDA-MB-231/ATCC) | GI50 (SK-MEL-28) | GI50 (HCT-116) |
| --- | --- | --- | --- | --- | --- | --- | --- | --- | --- | --- |
| CS(=O)(=O)Nc1cc(-c2ccc3ncc(C#N)c(Nc4cccc(Cl)c4F)c3c2)cnc1Cl [Compound 10, N-[2-chloro-5-[4-(3-chloro-2-fluoro-anilino)-3-cyano-6-quinolyl]-3-pyridyl]methanesulfonamide] | 75 to 125 nM | 125 to 250 nM | > 250 nM | > 250 nM | 75 to 125 nM | 125 to 250 nM | 125 to 250 nM | > 250 nM | 125 to 250 nM | ≤ 75 nM |
| CS(=O)(=O)Nc1cc(-c2ccc3ncnc(Nc4cccc(Cl)c4F)c3c2)cnc1Cl [Compound 6, N-[2-chloro-5-[4-(3-chloro-2-fluoro-anilino)quinazolin-6-yl]-3-pyridyl] methanesulfonamide] | ≤ 75 nM | ≤ 75 nM | 75 to 125 nM | > 250 nM | > 250 nM | 125 to 250 nM | 125 to 250 nM | 125 to 250 nM | 75 to 125 nM | 125 to 250 nM |
